Test system: green peach aphid (Myzus persicae)
Experiment: Myzus test (MYZUPE), sprayed aubergine plants
Type: in vivo
Conditions: application rate of 100 ppm, spray on aubergine plants, read-out: effect in % (aphids killed)
Experimental: Solvent: 3 parts by weight of dimethylformamide Emulsifier: 1 part by weight of polyoxyethylenealkyl phenyl ether
An appropriate preparation of active ingredient is prepared by mixing 1 part by weight of active ingredient with the stated amount of solvent and emulsifier and diluting the concentrate with water to the desired concentration.
Aubergine plants (Solanum melongena) infested by all stages of the green peach aphid (Myzus persicae) are sprayed with a preparation of active ingredient at the desired concentration.
After the desired time, the effect in % is determined; here, 100% means that all of the aphids have been killed. Conversely, 0% means that no aphids have been killed.

Row | SMILES | pest or weed control at 100 ppm [%]
1 | CCSc1ccc(C(=O)N(CC)c2cccnc2)cc1 [I-65] | ≥ 80

Same assay, conditions: application rate of 500 ppm, spray on aubergine plants, read-out: effect in % (aphids killed)

Row | SMILES | pest or weed control at 500 ppm [%]
2 | CN(C(=O)c1ccc(Cn2ccc(C(F)(F)F)n2)cc1)c1cccnc1 [I-27, N-Methyl-N-(pyridin-3-yl)-4-{[3-(trifluoromethyl)-1H-pyrazol-1-yl]methyl}benzenecarboxamide] | ≥ 80
3 | Cc1ccnc(Sc2ccc(C(=O)Nc3cccnc3)cn2)n1 [I-195] | ≥ 80
4 | CCN(C(=O)c1ccc(Oc2ccc(OC(F)(F)F)cc2)nc1)c1cccnc1 [I-132] | ≥ 80
5 | Cc1cc(C)nc(Sc2ncc(C(=O)N(C)c3cccnc3)cc2Cl)n1 [I-152] | ≥ 80
6 | O=C(Nc1cccnc1)c1ccc(Oc2ccc(Br)cc2)nc1 [I-84] | ≥ 80
7 | CCN(C(=O)c1ccc(Sc2nc(C)cc(C)n2)nc1)c1cccnc1 [I-192] | ≥ 80
8 | CN(C(=O)c1cnc(Oc2ccc(OC(F)(F)F)cc2)c(Cl)c1)c1cccnc1 [I-147] | ≥ 80
9 | Cc1nc(Sc2ccc(C(=O)Nc3cccnc3)cn2)nc(C)c1C [I-218] | ≥ 80
10 | COc1cc(OC)nc(Sc2ccc(C(=O)Nc3cccnc3)cc2)n1 [I-176] | ≥ 80
11 | Cc1cc(C)nc(Sc2ccc(C(=O)N(Cc3ccc(OC(F)(F)F)cc3)c3cccnc3)cn2)n1 [I-230] | ≥ 80
12 | CCN(C(=O)c1ccc(Oc2ccc(C#N)cc2)nc1)c1cccnc1 [I-165] | ≥ 80
13 | CN(C(=O)c1ccc(Oc2cccc(C#N)c2)nc1)c1cccnc1 [I-112] | ≥ 80
14 | CCSCc1ccc(C(=O)Nc2cccnc2)cc1 [I-33] | ≥ 80
15 | CCN(C(=O)c1ccc(N(C)C(C)=O)cc1)c1cccnc1 [I-254] | ≥ 80
16 | COc1ccc(Oc2ccc(C(=O)Nc3cccnc3)cn2)cc1 [I-81] | ≥ 80
17 | CN(C(=O)c1ccc(Oc2ccc(Cl)cc2C#N)nc1)c1cccnc1 [I-113] | ≥ 80
18 | COc1ccc(C(=O)N(C)c2cccnc2)cc1C(=O)NC(C)C [I-79] | ≥ 80
19 | N#Cc1ccc(Oc2ccc(C(=O)Nc3cccnc3)cn2)cc1 [I-164] | ≥ 80
20 | C#CCN(C(=O)c1ccc(Oc2ccc(OC(F)(F)F)cc2)nc1)c1cccnc1 [I-135] | ≥ 80
21 | CCN(CC)C(=O)c1ccc(C(=O)N(CC)c2cccnc2)cc1 [I-251] | ≥ 80
22 | CCN(CC)C(=O)c1ccc(C(=O)Nc2cccnc2)cc1 [I-250] | ≥ 80
23 | CCN(C(=O)c1ccc(Oc2nc(OC)cc(OC)n2)nc1)c1cccnc1 [I-169] | ≥ 80
24 | CSc1ccc(C(=O)N(C)c2cccnc2)cc1 [I-53] | ≥ 80

Row | SMILES | pest or weed control at 500 ppm [%]
25 | CCN(C(=O)c1ccc(Sc2nccc(C)n2)nc1)c1cccnc1 [I-197] | ≥ 80
26 | CN(C(=O)c1ccc(Oc2ccc(S(C)(=O)=O)cc2)nc1)c1cccnc1 [I-101] | ≥ 80
27 | CC(C)O/N=C/c1ccc(C(=O)N(C)c2cccnc2)cc1 [I-234] | ≥ 80
28 | Cc1ccnc(Sc2ccc(C(=O)N(C)c3cccnc3)cn2)n1 [I-137] | ≥ 80
29 | CN(C(=O)c1ccc(Oc2ccc(OC(F)(F)F)cc2)nc1)c1cccnc1 [I-116] | ≥ 80
30 | COc1cc(OC)nc(COc2cccc(C(=O)N(C)c3cccnc3)c2)n1 [I-207] | ≥ 80
31 | CCCNc1ccc(C(=O)Nc2cccnc2)cn1 [I-209] | ≥ 80
32 | Cc1ccccc1Oc1ccc(C(=O)N(C)c2cccnc2)cn1 [I-96] | ≥ 80
33 | CN(C(=O)c1ccc(Cn2nc(C(F)(F)F)nc2C(F)(F)F)nc1)c1cccnc1 [I-50] | ≥ 80
34 | Cc1cc(C)nc(Oc2ccc(C(=O)N(C)c3cccnc3)cc2)n1 [I-182] | ≥ 80
35 | CCN(C)C(=O)c1cc(C(=O)Nc2cccnc2)ccc1OC [I-76] | ≥ 80
36 | CN(C(=O)c1ccc(NC(=O)CC(F)(F)F)cc1)c1cccnc1 [I-51] | ≥ 80
37 | COc1cc(OC)nc(Oc2ccc(C(=O)N(C)c3cccnc3)cc2)n1 [I-171] | ≥ 80
38 | CN(C(=O)c1ccc(Oc2ccc(-n3cncn3)cc2)nc1)c1cccnc1 [I-128] | ≥ 80
39 | CCN(C(=O)c1ccc(Oc2ccc(-n3cncn3)cc2)nc1)c1cccnc1 [I-219] | ≥ 80
40 | CN(C(=O)c1ccc(Cn2nc(C(F)(F)F)nc2C(F)(F)F)cc1)c1cccnc1 [I-26] | ≥ 80
41 | CCN(C(=O)c1cccc(OCc2nc(OC)cc(OC)n2)c1)c1cccnc1 [I-208] | ≥ 80
42 | CN(C(=O)c1ccc(NC(=O)C(F)(F)F)cc1)c1cccnc1 [I-52] | ≥ 80
43 | CCCSCc1ccc(C(=O)N(C)c2cccnc2)cc1 [I-60] | ≥ 80
44 | Cc1nc(Sc2ccc(C(=O)N(C)c3cccnc3)cn2)nc(C)c1C [I-138] | ≥ 80
45 | CSc1ccc(C(=O)Nc2cccnc2)cc1 [I-36] | ≥ 80
46 | COc1cc(OC)nc(Oc2ccc(C(=O)Nc3cccnc3)cn2)n1 [I-168] | ≥ 80
47 | O=C(Nc1cccnc1)c1ccc(Cn2cnc(C(F)(F)F)n2)cc1 [I-8] | ≥ 80

Row | SMILES | pest or weed control at 500 ppm [%]
48 | O=C(Nc1cccnc1)c1ccc(Cn2cc(Br)c(C(F)(F)F)n2)cc1 [I-20] | ≥ 80
49 | COc1cc(OC)nc(Sc2ccc(C(=O)Nc3cccnc3)cn2)n1 [I-173] | ≥ 80
50 | CCN(C(=O)c1ccc(Oc2ccc(C(F)(F)F)cc2)nc1)c1cccnc1 [I-157] | ≥ 80
51 | CN(C(=O)c1ccc(CSC(F)F)cc1)c1cccnc1 [I-62] | ≥ 80
52 | CCCN(C(=O)c1ccc(Oc2ccc(OC(F)(F)F)cc2)nc1)c1cccnc1 [I-133] | ≥ 80
53 | CN(CCC#N)C(=O)c1ccc(C(=O)Nc2cccnc2)cc1 [I-244] | ≥ 80
54 | COc1nc(OC)nc(Sc2ccc(C(=O)Nc3cccnc3)cc2)n1 [I-188] | ≥ 80
55 | CSc1ccc(C(=O)N(C)c2cccnc2)cc1F [I-66] | ≥ 80
56 | CSc1ccc(C(=O)Nc2cccnc2)cn1 [I-108] | ≥ 80
57 | Cc1cc(C)nc(Sc2ccc(C(=O)Nc3cccnc3)cc2)n1 [I-179] | ≥ 80
58 | O=C(Nc1cccnc1)c1ccc(Sc2ncccn2)nc1 [I-194] | ≥ 80
59 | COc1cc(OC)nc(Oc2ccc(C(=O)N(C)c3cccnc3)cn2)n1 [I-145] | ≥ 80
60 | Cc1ccc(Sc2ccc(C(=O)N(C)c3cccnc3)cn2)cc1 [I-105] | ≥ 80
61 | Cc1cc(C)nc(Sc2ccc(C(=O)N(Cc3ccccc3)c3cccnc3)cn2)n1 [I-227] | ≥ 80
62 | C#CCN(C(=O)c1ccc(Sc2nc(C)cc(C)n2)nc1)c1cccnc1 [I-225] | ≥ 80
63 | O=C(Nc1cccnc1)c1ccc(Oc2cccc(C(F)(F)F)c2)nc1 [I-88] | ≥ 80
64 | COc1cc(OC)nc(Sc2ccc(C(=O)N(C)c3cccnc3)cn2)n1 [I-174] | ≥ 80
65 | Cc1cccc(Oc2ccc(C(=O)N(C)c3cccnc3)cn2)c1 [I-97] | ≥ 80
66 | COC(=O)c1cncc(Oc2ccc(C(=O)Nc3cccnc3)cn2)c1 [I-89] | ≥ 80
67 | O=C(Nc1cccnc1)c1ccc(N2CCOCC2)nc1 [I-212] | ≥ 80
68 | C#CCN(C(=O)c1ccc(Cl)nc1)c1cccnc1 [I-232] | ≥ 80
69 | CN(C)c1ccc(C(=O)Nc2cccnc2)cn1 [I-184] | ≥ 80
70 | C=CCN(C(=O)c1ccc(Oc2ccc(OC(F)(F)F)cc2)nc1)c1cccnc1 [I-134] | ≥ 80

Same assay, conditions: read-out: effect in % (aphids killed)

Row | SMILES | pest or weed control at 500 ppm [%]
71 | CN(C(=O)c1ccc(C(F)(F)C(F)(F)C(F)(F)F)nc1)c1cccnc1 [I-48] | ≥ 80
72 | O=C(Nc1cccnc1)c1ccc(C(F)(F)C(F)(F)C(F)(F)F)cc1 [I-29] | ≥ 80
73 | CN(C(=O)c1ccc(N(C)C(=O)C(F)(F)C(F)(F)C(F)(F)F)cc1)c1cccnc1 [I-247] | ≥ 80
74 | O=C(Nc1cccnc1)c1ccc(C(F)(F)C(F)(F)C(F)(F)F)nc1 [I-30] | ≥ 80

Test system: green peach aphid (Myzus persicae)
Experiment: Myzus test (MYZUPE spray treatment), Chinese cabbage leaf discs
Type: in vivo
Conditions: foliar, application rate of 500 g/ha, spray on Chinese cabbage discs, read-out: effect in % (aphids killed)
Experimental: Myzus Test (MYZUPE Spray Treatment)
Solvents: 78 parts by weight of acetone • • 1.5 parts by weight of dimethylformamide Emulsifier: 0.5 part by weight of alkylaryl polyglycol ether
An appropriate preparation of active ingredient is prepared by mixing 1 part by weight of active ingredient with the stated amounts of solvents and emulsifier and diluting the concentrate with emulsifier-containing water to the desired concentration.
Discs of Chinese cabbage (Brassica pekinensis) infested with all stages of the green peach aphid (Myzus persicae) are sprayed with a preparation of active ingredient at the desired concentration.
After the desired time, the effect in % is determined. Here, 100% means that all of the aphids have been killed; 0% means that no aphids have been killed.

Row | SMILES | pest or weed control at 500 g/ha [%]
75 | CC(C)C(=O)Nc1cccc(C(=O)Nc2cccnc2)c1 [I-286] | ≥ 80
76 | Cc1ccc(C(=O)N(C)c2cccnc2)cc1NC(=O)NC(C)C [I-314] | ≥ 80
77 | CC(C)=CC(=O)Nc1cc(C(=O)N(C)c2cccnc2)ccc1C [I-318] | ≥ 80
78 | O=C(Nc1cccnc1)c1cnn(CC(F)(F)F)c1C(F)(F)F [I-282] | ≥ 80
79 | Cn1cc(C(=O)Nc2ccnnc2)c(C(F)(F)F)n1 [I-281] | ≥ 80
80 | CN(C(=O)c1cnn(CC(F)(F)F)c1C(F)(F)F)c1cccnc1 [I-330] | ≥ 80
81 | CCC(C)C(=O)Nc1cc(C(=O)N(C)c2cccnc2)ccc1C (centres unmarked) [I-311] | ≥ 80
82 | O=C(Nc1cccnc1)c1cnn(CC(F)(F)F)c1-c1cnccn1 [I-257] | ≥ 80
83 | COC(C)c1c(C(=O)N(C)c2cccnc2)cnn1-c1ncccn1 (centres unmarked) [I-276] | ≥ 80

Source: US20100305124A1, “Acylated Aminopyridine and Aminopyridazine Insecticides” (BAYER CROPSCIENCE AG, priority 2009, published 2010)
